Patent US10457707B2, “Substituted urea depsipeptide analogs as activators of the CLPP endopeptidase” (priority 2015, dated 2019)
≈ marks a conversion by molar mass, not a printed value. *1 amine or outer side, *2 acyl side, *3 side chain or, on linkers, in order; H or OH if unused. Where a SMILES comes first, the peptide text is derived from it. Bridges are numbered along the chain shown (N, C = ends). [ ]: non-standard residue; d: D form. The star is where a group is joined. Phe(3,5-F2) = N[C@@H](Cc1cc(F)cc(F)c1)C(=O)O; NMepT = CN[C@H](C(=O)O)[C@@H](C)OP(=O)(O)O; NH(4-OCF3-phenyl) = FC(F)(F)Oc1ccc(N*)cc1; Pro(4S-Me) = C[C@@H]1CN[C@H](C(=O)O)C1; Pro(4R-Me) = C[C@H]1CN[C@H](C(=O)O)C1; NH(4-Et-phenyl) = CCc1ccc(N*)cc1; NMeT = CN[C@H](C(=O)O)[C@@H](C)O; NH(4-Me-phenyl) = Cc1ccc(N*)cc1; aThr = C[C@H](O)[C@H](N)C(=O)O; CO = O=C([*:1])[*:2]

Key:
[1] = tested on: Staphylococcus aureus, USA 300; experiment: Minimal inhibitory concentration assay; type: cell-based; conditions: USA300, read-out: Minimal Inhibitory Concentrations S. aureus USA 300
Outline: (§1)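 CLSI broth microdilution; 2-fold series from 200 μM final; inoculum ~10^5 cfu/mL; 37 °C, aerobic, overnight; visual MIC = lowest conc. without growth. The ClpP-inactivated USA 300 strain is the comparator for ClpP-dependent killing.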

[2] = tested on: Staphylococcus aureus, USA 300 wherein ClpP is inactivated; experiment: Minimal inhibitory concentration assay; type: cell-based
Outline: as §1

Sa-ClpP [3] = molecular target: T1, Sa-ClpP (Staphylococcus aureus, UniProt Q2G036); experiment: Casein-BODIPY assay, second described ClpP activation method (EnzCheck Protease Assay, 384 well); type: biochemical, S. aureus; conditions: values marked †: second described ClpP activation assay
T1 construct: made in house; host or cells: E. coli BL21(DE3)
T1 sequence (Q2G036 1-195): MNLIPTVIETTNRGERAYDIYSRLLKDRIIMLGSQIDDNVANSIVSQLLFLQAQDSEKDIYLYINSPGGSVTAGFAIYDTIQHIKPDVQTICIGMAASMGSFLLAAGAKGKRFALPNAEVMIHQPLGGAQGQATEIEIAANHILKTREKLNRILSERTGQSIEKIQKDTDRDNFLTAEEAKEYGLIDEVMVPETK
Experimental: Alternatively, the assay was carried out using EnzCheck Protease Assay (Molecular Probes, Catalog # E6638). The assay was performed in black 384 well, flat bottom, low volume plates (Greiner Bio-One, Monroe, N.C., catalog #784076). 10 μL of Tris*HCl buffer, pH 8.0 with 0.01% Triton X-100 was pipetted into each well using a Well-Mate (Thermo Scientific, Waltham, Mass.). 0.4 μL test compounds or controls (2% DMSO v/v) were added to each well using a Biomek FX liquid handling robot (Beckman Coulter, Indianapolis Ind.). After addition of test compounds and controls, 10 μL of master mix containing 2 μM Sa-ClpP and 2 μM substrate (Bodipy-FL labeled casein) in Tris*HCl buffer, pH 8.0 with 0.01% (v/v) Triton X-100, was pipetted into each well. All assays were performed in triplicate, under linear velocity conditions. Increase in fluorescent signal following activation of Sa-ClpP by test compounds and controls was measured over time period of 30 mins using filters with excitation at 485±15 nm and emission at 520±25 nm on a PHERAstar FS Multilabel reader (BMG, Cary, N.C.). […] Data analysis was done by measuring rate of casein degradation over time (slopes). Computed degradation rates (slopes) were normalized to positive (ADEP4) or negative (DMSO) controls. Using nonlinear regression curve fitting EC50 values and % activation were determined using the equation “log [agonist] vs. Response-variable slope (four parameters)-symmetrical” in the program Prism 6 (GraphPad Software, La Jolla, Calif. USA, www.graphpad.com).

physchem = conditions: 22 °C, aqueous buffer, kinetic from dmso stock
Sa-ClpP [4] = molecular target: T1, Sa-ClpP; experiment: Sa-ClpP casein-BODIPY ClpP activation assay, method variant not marked in Table 5; type: biochemical, S. aureus; conditions: values without ** or † mark; assay variant not stated; read-out: ClpP Activation EC50
Outline: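 Purified S. aureus ClpP (10 μM) incubated with 25 μg/ml BODIPY FL casein and compound (0-1000 μM) in pH 8 Tris/KCl/TCEP at 37° C. Fluorescence (485/528 nm) read every 5 min over 45 min; reaction velocities fitted to dose-response for EC50 (50% activation), triplicate.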

For `C[C@@H]1C[C@H]2C(=O)O[C@@H](C)[C@H](NC(=O)[C@H](Cc3cc(F)cc(F)c3)NC(=O)Nc3ccc(OC(F)(F)F)cc3)C(=O)N3CCC[C@H]3C(=O)N(C)[C@@H]([C@@H](C)O)C(=O)N[C@@H](C)C(=O)N2C1` [Compound 41, (S)-3-(3,5-difluorophenyl)-N-((2R,6S,9S,11aS,17S,18S,20aS)-9-((R)-1-hydroxyethyl)-2,6,10,18-tetramethyl-5,8,11,16,20-pentaoxohexadecahydro-1H,5H,16H-dipyrrolo[2,1-c:2′,1′-l][1]oxa[4,7,10,13]tetraazacyclohexadecin-17-yl)-2-(3-(4-(trifluoromethoxy)phenyl)ureido)propanamide] ({NH(4-OCF3-phenyl)-CO}-[Phe(3,5-F2)][aThr]P[NMeT]A[Pro(4R-Me)]; ester 2-C), the MIC [1] was 0.02 µM (≈ 0.0176 µg/mL), the “Minimal Inhibitory Concentrations S. aureus USA 300 ΔClpP” value [2] was 50 µM and the EC50 (Sa-ClpP [3]) was 310 ± 10 nM.

With `CCc1ccc(NC(=O)N[C@@H](Cc2cc(F)cc(F)c2)C(=O)N[C@@H]2C(=O)N3CCC[C@H]3C(=O)N(C)[C@@H]([C@@H](C)O)C(=O)N[C@@H](C)C(=O)N3C[C@H](C)C[C@H]3C(=O)O[C@H]2C)cc1` [Compound 42, (S)-3-(3,5-difluorophenyl)-2-(3-(4-ethylphenyl)ureido)-N-((2R,6S,9S,11aS,17S,18S,20aS)-9-((R)-1-hydroxyethyl)-2,6,10,18-tetramethyl-5,8,11,16,20-pentaoxohexadecahydro-1H,5H,16H-dipyrrolo[2,1-c:2′,1′-l][1]oxa[4,7,10,13]tetraazacyclohexadecin-17-yl)propanamide] ({NH(4-Et-phenyl)-CO}-[Phe(3,5-F2)][aThr]P[NMeT]A[Pro(4R-Me)]; ester 2-C) the MIC [1] was 0.1 µM (≈ 0.0826 µg/mL), the “Minimal Inhibitory Concentrations S. aureus USA 300 ΔClpP” value [2] was 100 µM and the EC50 (Sa-ClpP [3]) was 250 ± 30 nM.

With `Cc1ccc(NC(=O)N[C@@H](Cc2cc(F)cc(F)c2)C(=O)N[C@@H]2C(=O)N3CCC[C@H]3C(=O)N(C)[C@@H]([C@@H](C)OP(=O)(O)O)C(=O)N[C@@H](C)C(=O)N3C[C@@H](C)C[C@H]3C(=O)O[C@H]2C)cc1` [Compound 188, (R)-1-((2S,6S,9S,11aS,17S,18S,20aS)-17-((S)-3-(3,5-difluorophenyl)-2-(3-(p-tolyl)ureido)propanamido)-2,6,10,18-tetramethyl-5,8,11,16,20-pentaoxohexadecahydro-1H,5H,16H-dipyrrolo[2,1-c:2′,1′-l][1]oxa[4,7,10,13]tetraazacyclohexadecin-9-yl)ethyl dihydrogen phosphate] ({NH(4-Me-phenyl)-CO}-[Phe(3,5-F2)][aThr]P[NMepT]A[Pro(4S-Me)]; ester 2-C) the MIC [1] was 50 µM, the “Minimal Inhibitory Concentrations S. aureus USA 300 ΔClpP” value [2] was over 200 µM and the solubility (physchem) was 107 ± 2.7 µM. For the same molecule, the EC50 (Sa-ClpP [4]) was 1800 ± 70 nM.
